How the values were obtained:
[1] = system: vancomycin-resistant enterococci (VRE); test: MIC, broth micro-dilution (CLSI); assay type: cell-based, enterococci (porcine isolates)
S. pneumoniae D39 = test: Minimum bactericidal concentration (MBC); assay type: cell-based; settings: Streptococcus pneumoniae, 99.9% colony count reduction, read-out: MBC
S. aureus Xen29 = test: Time-dependent killing assay; assay type: cell-based, Staphylococcus aureus
Protocol: Time kill assays were performed (in duplicate) essentially as described previously with slight modifications. Briefly, a few colonies of luminescent S. pneumoniae strain D39LUX or luminescent S. aureus ATCC 12600 (Xen29) from an overnight HBA were emulsified in normal saline and adjusted to A600 nm = 0.10 (equivalent to approx. 5 × 10^7 c.f.u. per ml) and the bacterial suspension further diluted 1:20 in saline. […] The compounds were serially diluted in 100% DMSO at 100× the final desired concentration and 100 μl of appropriate concentrations added to each 10 ml preparation. Duplicate cultures were incubated at 37°C (+ 5% CO2 for S. pneumoniae D39), with samples withdrawn at 0, 0.5, 1, 2, 4, 6, 8 and 24 h, serially diluted 10-fold and plated on HBA overnight at 37°C (+ 5% CO2 for S. pneumoniae D39) for bacterial enumeration.

[2] = Kinetic solubility by nephelometry; assay type: physicochemical; settings: kinetic from dmso stock
human red blood cells = test: Haemolysis assay; assay type: cell-based; settings: 1 h, 37°C; highest concentration used 128 μg/ml
Protocol: This was performed using fresh donor human red blood cells (RBCs), essentially as described previously. Fresh RBCs were washed in PBS three times at 500 × g for 5 min, and then resuspended 1% (w/v) in PBS. […] Thereafter, 198 μL of the 1% RBC solution was added into each well, and the mixture incubated for 1 h at 37°C, with shaking at 100 rpm. Quadruplicate wells containing either 1% Triton X100, or PBS only, served as controls. After incubation, the trays were centrifuged at 1,000 × g for 3 min and 100 μl of supernatant from each well transferred into a new 96-well tray. Absorbance was measured at A450 nm on a Multiskan Ascent 354 Spectrophotometer (Labsystems) and plotted against each dilution. Haemolytic titer was determined as the reciprocal of the dilution at which 50% of erythrocytes were lysed at A450 nm. The experiment was performed twice.

MDBK = test: Real-time cell viability, RealTime-Glo MT; assay type: cell-based, bovine; settings: 2 or 8 μg/ml, up to 20 h post-treatment
Text: (§1) In order to ensure minimal off target mammalian cell cytotoxicity, we assayed NCL812, NCL195 and NCL219 for in vitro cytotoxicity using a panel of adherent mammalian cell lines: Caco-2 (human colorectal adenocarcinoma cell line), HEL 299 (non-cancerous human lung fibroblast cell line), Hep G2 (human hepatocellular carcinoma cell line), MDBK (normal bovine kidney cell line) and MCF7 (human mammary gland adenocarcinoma cell line). Cell lines were maintained in Dulbecco’s Modified Eagle’s Medium (DMEM; […] After 24 h incubation, media was removed, washed once with medium without antibiotics and fresh medium supplemented with 10% (vol/vol) FBS was added. […] Following exposure for 24 h, WST-1 reagent was added to each well at a final concentration of 10%. […] The IC50 value for each compound against each cell line was determined via non-linear regression (three parameters) using GraphPad Prism v6 software. The robustness of assays was confirmed with selected cell lines (Hep G2 and MDBK) seeded onto a 96–well Microwell Nunclon Delta Surface plate (Thermo Scientific Nunc; Cat No: 136101) at 5 × 10^4 cells per well.

[3] = system: panel of mammalian cell lines (Caco-2, HEL 299, Hep G2, MDBK, MCF7); test: In vitro cytotoxicity, WST-1, all cell lines tested; assay type: cell-based; settings: lower bound over all the cell lines tested
Text: as §1

Cc1ccc(/C=N/Nc2cc(N/N=C/c3ccc(C)cc3)nc(N)n2)cc1 [NCL195, 4,6-bis(2-((E)-4-methylbenzylidene)hydrazinyl)pyrimidin-2-amine]
no measurable effect on cell viability: Effect on cell viability (real-time) (MDBK)
> 10 µg/mL: IC50 [3]
16 µg/mL: MIC ([1]; Enterococcus, VRE, VRE 1 (49 FR), 10% FBS) | MIC ([1]; Enterococcus, VRE, VRE 2 (53 FR), 10% FBS) | MIC ([1]; Enterococcus, VRE, VRE 3 (55 FR), 10% FBS) | MIC ([1]; Enterococcus, VRE, VRE 4 (57 FR), 10% FBS) | MIC ([1]; Enterococcus, VRE, VRE 6 (59 FR), 10% FBS) | MIC ([1]; Enterococcus, VRE, VRE 9 (61 FR), 10% FBS) | MIC ([1]; Enterococcus, VRE, VRE 10 (62 FR), 10% FBS) | MIC ([1]; Enterococcus, VRE, VRE 11 (284 G), 10% FBS) | MIC ([1]; Enterococcus, VRE, VRE 12 (290 G), 10% FBS) | MIC ([1]; Enterococcus, VRE, VRE 13 (251 G), 10% FBS) | MIC ([1]; Enterococcus, VRE, VRE 15 (63 FR), 10% FBS) | MIC ([1]; Enterococcus, VRE, VRE 16 (60 FR), 10% FBS) | MIC ([1]; Enterococcus, VRE, VRE 18 (69 W), 10% FBS) | MIC ([1]; Enterococcus, VRE, VRE 19 (70 W), 10% FBS)
2 to 4 µg/mL: MIC range ([1]; S3 Table isolates, absence of FBS)
4 µg/mL: MIC90 ([1]; Enterococcus, VRE, S3 Table isolates, absence of FBS) | MIC ([1]; Enterococcus, VRE, VRE 1 (49 FR), absence of FBS) | MIC ([1]; Enterococcus, VRE, VRE5 (58 FR), absence of FBS) | MIC ([1]; Enterococcus, VRE, VRE 6 (59 FR), absence of FBS) | MIC ([1]; Enterococcus, VRE, VRE 7 (270 G), absence of FBS) | MIC ([1]; Enterococcus, VRE, VRE 8 (277 G), absence of FBS) | MIC ([1]; Enterococcus, VRE, VRE 9 (61 FR), absence of FBS) | MIC ([1]; Enterococcus, VRE, VRE 10 (62 FR), absence of FBS) | MIC ([1]; Enterococcus, VRE, VRE 11 (284 G), absence of FBS) | MIC ([1]; Enterococcus, VRE, VRE 20 (78 W), absence of FBS)
some S. aureus regrowth was observed: Regrowth after 24 h (S. aureus Xen29; at the concentrations tested (2× and 4× MIC))
8 µg/mL: MBC (S. pneumoniae D39)
32 µg/mL: MIC ([1]; Enterococcus, VRE, VRE5 (58 FR), 10% FBS) | MIC ([1]; Enterococcus, VRE, VRE 7 (270 G), 10% FBS) | MIC ([1]; Enterococcus, VRE, VRE 8 (277 G), 10% FBS) | MIC ([1]; Enterococcus, VRE, VRE 14 (252 G), 10% FBS) | MIC ([1]; Enterococcus, VRE, VRE 17 (45 FR), 10% FBS) | MIC ([1]; Enterococcus, VRE, VRE 20 (78 W), 10% FBS)
6 h: Time to clear all Xen29 (S. aureus Xen29; 2× MIC) | Time to clear all Xen29 (S. aureus Xen29; 4× MIC)
2 µg/mL: MIC ([1]; Enterococcus, VRE, VRE 2 (53 FR), absence of FBS) | MIC ([1]; Enterococcus, VRE, VRE 3 (55 FR), absence of FBS) | MIC ([1]; Enterococcus, VRE, VRE 4 (57 FR), absence of FBS) | MIC ([1]; Enterococcus, VRE, VRE 12 (290 G), absence of FBS) | MIC ([1]; Enterococcus, VRE, VRE 13 (251 G), absence of FBS) | MIC ([1]; Enterococcus, VRE, VRE 14 (252 G), absence of FBS) | MIC ([1]; Enterococcus, VRE, VRE 15 (63 FR), absence of FBS) | MIC ([1]; Enterococcus, VRE, VRE 16 (60 FR), absence of FBS) | MIC ([1]; Enterococcus, VRE, VRE 17 (45 FR), absence of FBS) | MIC ([1]; Enterococcus, VRE, VRE 18 (69 W), absence of FBS) | MIC ([1]; Enterococcus, VRE, VRE 19 (70 W), absence of FBS)
3.1 to 6.3 µg/mL: solubility ([2]; pH 2.0)
< 1.6 µg/mL: solubility ([2]; pH 6.5)
> 128 µg/mL: 50% haemolysis titre (HC50) (human red blood cells)
16 to 32 µg/mL: MIC range ([1]; S3 Table isolates, 10% FBS)

Source: article PMC5584945, “Evaluation of robenidine analog NCL195 as a novel broad-spectrum antibacterial agent” (PLoS ONE, 2017)
